The values that follow are results of earlier work, collected in US8288116B2, “Methods and compositions for isolating metastatic cancer cells, and use in measuring metastatic potential of a cancer thereof” (The Research Foundation of State University of New York, priority 2000, dated 2012).

This data set deals with patients with cancer. The settings on record: trials in patients with cancer.
Consider `CNC(=O)[C@@H](NC(=O)[C@H](CC(C)C)[C@H](O)C(=O)NO)C(C)(C)C` [Marimastat], for which the “anti-metastatic, anti-invasive effects” value is “not produced obvious evidence”. As to endostatin, the “anti-metastatic, anti-invasive effects” value was “not produced obvious evidence”. Regarding `CC1(C)SCCN(S(=O)(=O)c2ccc(Oc3ccncc3)cc2)[C@H]1C(=O)NO` [AG3340], the “anti-metastatic, anti-invasive effects” value is reported as “not produced obvious evidence”. Regarding angiostatin, the “anti-metastatic, anti-invasive effects” value is “not produced obvious evidence”.
